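These data come from cells grown in 96-well plates and exposed to compound for 48 hours at five concentrations. Abbreviation: GI50, concentration required for 50% inhibition of growth.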 Active and inactive are the calls of the source. No stated cut-off is given here; in the data, active = GI50 up to about 1.1 µM and inactive = higher.
Experiments:
Experiment in all cases: NCI tumour cell line growth inhibition, 48 h
DMS-273 = test system: DMS-273
HOP-18 = test system: HOP-18
XF498 = test system: XF498
M19-MEL = test system: M19-MEL
RXF 631 = test system: RXF 631
DMS-114 = test system: DMS-114
KM-20L2 = test system: KM-20L2
LXFL 529 = test system: LXFL 529
SNB-78 = test system: SNB-78

| Compound | GI50 (DMS-273) | GI50 (HOP-18) | GI50 (XF498) | GI50 (M19-MEL) | GI50 (RXF 631) | GI50 (DMS-114) | GI50 (KM-20L2) | GI50 (LXFL 529) | GI50 (SNB-78) |
| --- | --- | --- | --- | --- | --- | --- | --- | --- | --- |
| C=C(C)C1CC=C(C)CC1 (centres undefined) | 993 µM (inactive) | > 100 µM (inactive) | 993 µM (inactive) | 879 µM (inactive) | 908 µM (inactive) | 891 µM (inactive) | 904 µM (inactive) | 855 µM (inactive) | 986 µM (inactive) |
| O=C(CC(=O)c1ccccc1)C(=O)NC12CC3CC(CC(C3)C1)C2 | > 47 µM (inactive) | > 100 µM (inactive) | > 100 µM (inactive) | > 100 µM (inactive) | – | > 42.4 µM (inactive) | > 75.7 µM (inactive) | > 100 µM (inactive) | > 100 µM (inactive) |
| CC(=O)/C(=C\c1ccccc1)C(=O)Nc1ccccc1 | – | > 100 µM (inactive) | > 100 µM (inactive) | > 100 µM (inactive) | > 100 µM (inactive) | > 100 µM (inactive) | – | > 100 µM (inactive) | > 100 µM (inactive) |
| Cc1cccc(N2C(=O)C(Cl)=C(Cl)C2=O)c1 | > 100 µM (inactive) | > 73.6 µM (inactive) | 0.661 µM (active) | > 91.2 µM (inactive) | – | > 67.5 µM (inactive) | > 100 µM (inactive) | > 41.6 µM (inactive) | > 100 µM (inactive) |
| CCN(CC)CCC1(C2CCCCC2)CCC(=O)NC1=O (centres undefined) | > 100 µM (inactive) | – | > 100 µM (inactive) | > 100 µM (inactive) | > 100 µM (inactive) | > 100 µM (inactive) | > 100 µM (inactive) | > 100 µM (inactive) | > 100 µM (inactive) |
| N=C(N)NS(=O)(=O)c1ccc(NC(=O)c2cccc3c(N)c4ccccc4nc23)cc1 | > 100 µM (inactive) | – | > 100 µM (inactive) | > 100 µM (inactive) | > 100 µM (inactive) | 61.2 µM (inactive) | 68.2 µM (inactive) | 60.1 µM (inactive) | > 100 µM (inactive) |
| CCOc1cc2c(C(=O)CC)c(O)ccc2o1 | > 100 µM (inactive) | – | > 49.9 µM (inactive) | 31.1 µM (inactive) | – | > 54.5 µM (inactive) | > 100 µM (inactive) | 64.9 µM (inactive) | > 96.6 µM (inactive) |
| COc1cc2cnc3c4cc(O)ccc4ccc3c2cc1OC | – | 34.8 µM (inactive) | – | 24.7 µM (inactive) | – | 6.3 µM (inactive) | > 100 µM (inactive) | 6.08 µM (inactive) | – |
| CCCCCCCCCCCCCS(=O)(=O)NCC(N)=O | – | > 100 µM (inactive) | 69.8 µM (inactive) | > 100 µM (inactive) | – | > 100 µM (inactive) | > 100 µM (inactive) | > 100 µM (inactive) | > 100 µM (inactive) |
| CC[P+]1(c2ccccc2)CCCCC1 | > 100 µM (inactive) | > 100 µM (inactive) | – | > 100 µM (inactive) | > 100 µM (inactive) | > 100 µM (inactive) | > 100 µM (inactive) | > 100 µM (inactive) | > 100 µM (inactive) |
| Cc1[nH]c(=O)nc(N/N=C/c2ccc(Cl)cc2)c1C(=O)Nc1ccc(Cl)cc1 | 12.6 µM (inactive) | 1.22 µM (inactive) | 4.68 µM (inactive) | 16.1 µM (inactive) | – | 18.2 µM (inactive) | > 100 µM (inactive) | 23 µM (inactive) | > 100 µM (inactive) |
| CCCC(C(=O)OC)C1N/C(=N/C#N)N(Cc2ccccc2)C1=O (centres undefined) | > 100 µM (inactive) | – | > 100 µM (inactive) | > 100 µM (inactive) | – | > 100 µM (inactive) | > 100 µM (inactive) | > 100 µM (inactive) | – |
| CCSc1nc2n(c(=S)n1)CCN2C | 18.1 µM (inactive) | – | – | 13.5 µM (inactive) | – | 18.7 µM (inactive) | 20 µM (inactive) | 13.4 µM (inactive) | – |

— ChEMBL document CHEMBL1201862, “PubChem BioAssay data set” (2004)
